Reference: PubChem BioAssay (NCI)
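Following 48 hours of exposure in 96-well plates, responses at five concentrations were used to interpolate endpoints linearly. GI50 = concentration required for 50% inhibition of growth. TGI denotes the concentration required for complete inhibition of growth.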

Tests used:
Assay in all cases: growth of human tumour cells (NCI), 48 h
[1] = tested on: ACHN renal
[2] = tested on: CAKI-1 renal
[3] = tested on: PC-3 prostate
[4] = tested on: SR leukemia
[5] = tested on: NCI-H226 lung
[6] = tested on: SNB-19 CNS
[7] = tested on: 786-0 renal
[8] = tested on: OVCAR-3 ovarian
[9] = tested on: SK-MEL-28 melanoma

Structure (SMILES)	TGI [1] [µM]	TGI [2] [µM]	TGI [3] [µM]	TGI [4] [µM]	TGI [5] [µM]	TGI [6] [µM]	TGI [7] [µM]	TGI [8] [µM]	TGI [9] [µM]	GI50 [1] [µM]	GI50 [2] [µM]	GI50 [3] [µM]	GI50 [5] [µM]	GI50 [6] [µM]	GI50 [8] [µM]	GI50 [9] [µM]	GI50 [4] [µM]
CN(/N=C/C=N/N(C)C1=NCCN1)C1=NCCN1	> 100	> 100	> 100	> 100	> 100	> 100	> 100	> 100	> 100	–	–	–	–	–	–	–	–
CC(=O)Oc1cc(-c2oc3cc(OC(C)=O)c(C4OC(CO)C(O)C(O)C4O)c(OC(C)=O)c3c(=O)c2O)c(OC(C)=O)cc1O (centres undefined)	> 100	> 100	> 100	–	> 100	–	> 100	> 100	–	–	–	–	–	–	–	–	–
O[C@@]12Cc3c([nH]c4ccccc34)[C@@H]3Oc4c(-c5ccccc5)ccc5c4[C@@]31CCN(CC1CC1)[C@@H]2C5	2.75	11.1	3.76	> 100	–	3.95	3.04	3.04	3.24	–	–	–	–	–	–	–	–
c1cc(CSc2ncnc3nc[nH]c23)ccn1	> 100	> 100	> 100	> 100	> 100	> 100	> 100	> 100	> 100	–	–	–	–	–	–	–	–
OC(Cc1cc(CC(O)(C(F)(F)F)C(F)(F)F)nc(CC(O)(C(F)(F)F)C(F)(F)F)c1)(C(F)(F)F)C(F)(F)F	> 10	2.31	0.776	–	7.58	8.79	6.34	1.96	5.68	–	–	–	–	–	–	–	–
CC(C)CC1N=C(OCc2ccccc2)OC1=O (centres undefined)	> 100	> 100	> 100	–	> 100	> 100	> 100	> 100	> 100	–	–	–	–	–	–	–	–
CCCCCCCCCCCCCCCCCCOc1ccccc1COP(=O)(O)OOCC[N+](C)(C)C	5.62	4.14	1.8	–	5.54	7.76	–	2.56	6.2	1.45	1.2	0.824	1.16	1.44	0.993	1.59	–
Cc1c(C#N)c2nc3ccccc3n2c(=O)/c1=C/Nc1ccc(Cl)cc1	25	> 100	–	> 100	> 100	27.9	20.7	–	> 100	–	–	–	–	–	–	–	–
CC1(C)[C@H]2Cc3cc4nc5ccccn5c4cc3[C@@H]1C2	34.2	30	41.5	–	35.4	31.8	32.7	35.6	36.3	–	–	–	–	–	–	–	–
O=C1N[C@H](C(=O)O)[C@@H](c2ccc(OCc3ccccc3)cc2)O1	> 100	> 100	> 100	–	55.7	45	65.6	> 100	> 100	–	–	–	–	–	–	–	–
C#CCNC(=O)CC[C@@H](C)[C@H]1CC[C@H]2[C@@H]3CC[C@@H]4CC(=O)CC[C@]4(C)[C@H]3CC[C@]12C	32.4	29.2	24.2	33.3	36.2	71	–	36.1	36	14.9	12.8	2.91	14.8	24.3	13.8	16.8	3.17
CC(C)=CCc1cc(/C=C/C(=O)O)cc(CC=C(C)C)c1O	> 100	> 100	> 100	> 100	–	> 100	> 100	> 100	–	–	–	–	–	–	–	–	–
Nc1ncnc2c1ccn2-c1cccc(NC(=O)c2ccc(N3CCOCC3)c(C(F)(F)F)c2)c1	10.5	8.73	10.4	20.7	14.3	13	–	11.4	23	2.88	2.69	2.51	3.51	3.96	3.04	4.76	3.38
O=C1CN(c2ccccc2)C(=O)CN1NCNN1CC(=O)N(c2ccccc2)CC1=O	> 100	> 100	> 100	> 100	–	> 100	> 100	> 100	> 100	–	–	–	–	–	–	–	–
CC(C)c1c(O[Si](C(C)C)(C(C)C)C(C)C)cc2c(c1O)CC[C@H]1C(C)(C)CCC[C@]21C	> 100	> 100	> 100	–	> 100	> 100	> 100	> 100	> 100	–	–	–	–	–	–	–	–
CC1(C)N([O-])[N+](=O)C1(C)O (centres undefined)	–	> 100	> 100	> 100	> 100	> 100	> 100	> 100	> 100	–	–	–	–	–	–	–	–
COc1cccc(/C=N/[N-]C(N)=O)c1[O-].[Co+2].[OH3+].c1ccncc1	> 100	> 100	–	–	> 100	–	> 100	> 100	> 100	–	–	–	–	–	–	–	–
Cn1c(=O)c2c(=O)cc(N)[nH]c2n(C)c1=O	> 100	76.8	> 100	–	> 100	> 100	> 100	> 100	> 100	–	–	–	–	–	–	–	–
C=C1CC[C@@H]2[C@](C)(COC(=O)CCC(=O)O)CCC[C@@]2(C)[C@@H]1CCC1=CC(=O)OC1	> 100	> 100	> 100	–	> 100	> 100	> 100	> 100	> 100	–	–	–	–	–	–	–	–
CCN(CC)CCSc1c(C(C)=O)c(=O)n(-c2ccccc2)c(=S)n1-c1ccccc1	10.1	24	12	–	> 60.3	55.8	3.38	8.79	33.3	–	–	–	–	–	–	–	–
C=C(C)[C@H]1CC(=O)[C@@]2(C)C[C@H]3O[C@]3(C)CC/C=C(\C)CC[C@H]12	> 100	73	86.2	–	> 100	> 100	> 100	80.1	> 100	–	–	–	–	–	–	–	–
CCCCCCCCCCCCCCCC(=O)OC1C(O)C(O)C(O)C(O)C12CO2 (centres undefined)	> 100	29.8	89.7	–	> 100	> 100	41.9	73	> 100	–	–	–	–	–	–	–	–
